The assay has as its target T1, plant Photosystem II (PSII), D1 protein QB site, pea (Lathyrus oleraceus, UniProt P06585).
T1 construct: gene psbA; native D1 within whole PSII complex (D1/D2 reaction centre) in isolated thylakoid membranes from 4-week-old pea leaves; no tag, not purified further
Briefly: DPIP photoreduction (Hill reaction, […] nm) in isolated thylakoid membranes, Langmuir isotherm fit. The assay is classed as biochemical. The settings on record: pH 7.2, 100 µM DPIP, 5 mM NH4Cl, 5 mM MgCl2, 15 µg/mL Chl, white light 500 µmol photons m^-2 s^-1, 10 min dark preincubation at room temperature, competitive with plastoquinone, read-out: DPIP Photoreduction / I50.
For the compound `CSc1nnc(C(C)(C)C)c(=O)n1N` [Metribuzin], the IC50 stood at 156 nM. The result for `CC(C)N1C(=O)c2ccccc2NS1(=O)=O` [Bentazon] reads 6160 nM; that for `CCNc1nc(Cl)nc(NC(C)(C)C)n1` [Terbuthylazine], 110 nM; that for `CN(C)C(=O)Nc1ccc(Cl)c(Cl)c1` [Diuron], 71.8 nM.

Values taken from PMC8398153, “Binding Properties of Photosynthetic Herbicides with the QB Site of the D1 Protein in Plant Photosystem II: A Combined Functional and Molecular Docking Study” (Plants, 2021).
